Among the data in paper PMC4912613, “A broad analysis of resistance development in the malaria parasite” (Nature Communications, 2016) are EC50 values, retold here.

Assay [1] concerns CYTbQi (cytb G33A, parent Dd2). As to the kind of experiment: Cross-resistance EC50 assay, CYTbQi. Type of assay: cell-based. Conditions: Plasmodium falciparum, SYBR green 72 hour assay, synchronized parasites, 384-well format. The source says: (§1) To evaluate potential overlapping activity against known antimalarial drug targets, we performed dose-response studies with each compound against our assembled set of drug-resistant lines and their corresponding parents, in an asexual blood stage proliferation assay (Table 1). Comparisons were made to the drug-sensitive strain 3D7 when a parent was unavailable (TM90C2A, W2 and Dd2). As laboratories conducted EC50 assays with different strains and protocols, all comparisons were made between assays from the same laboratory and under the same assay conditions. Compounds displaying >5-fold EC50 shifts relative to the parent or sensitive strain were flagged as having potentially non-novel targets. Average fold shifts per strain ranged from 0.82 to 2.34, with a median of 1.23 indicating there was not common resistance to any one resistant clone. No resistance patterns were observed when classifying the compounds based on chemical structure, but this was not surprising given the diversity of compounds chosen. On the other hand, given that these confirmed compounds were derived from larger unconfirmed hit lists to which some filtration criteria may have been applied (for example, elimination of obvious dihydrofolate reductase inhibitors[32]), some[10][11][12][13] pre-existing bias may exist in the set. […]
(§2) Alternatively, a SYBR Green-based proliferation approach was used for the 72-h assay, as previously described. Briefly, a culture of either synchronized or asynchronous parasitized RBCs (0.3% parasitemia and 4% haematocrit) in screening medium (identical to supplemented medium above except no serum was added) was exposed to serial drug dilutions. Plates were incubated at 37 °C and gassed with 93% N2, 4% CO2 and 3% O2 for 72 h. Following incubation, 10 × SYBR Green I (Invitrogen; supplied in 10,000 × concentration) in lysis buffer ([…], 5 mM EDTA, 0.16% Saponin wt per vol and 1.6% Triton X vol per vol) was added to the wells and the plates were incubated overnight at room temperature before plate reading. EC50 assays were repeated three times, taking the average EC50 value from each assay set, and removing any outliers using a single iteration of Grubbs' test, eliminating values with z-scores above the critical z-value (α=0.05). The raw EC50 values for synchronized parasites assayed in a 384-well format are listed in Supplementary Data 4. The raw EC50 values for asynchronous parasites assayed in a 96 or 1536-well format are listed in Supplementary Data 5.
(§3) EC50 values for each strain were compared with those of the corresponding parent strain to determine fold-shift changes and identify resistance. To minimize the cause variance between assays, all comparisons were conducted between strains assayed under identical conditions. A one-way ANOVA followed by a Dunnet's post-test was conducted in GraphPad Prism to identify significant changes between the parent and resistant strain.

Assay [2] deals with Dd2. Put plainly: Cross-resistance EC50 assay, Dd2 parent. Type of assay: cell-based, Plasmodium falciparum. Conditions: Plasmodium falciparum.
Source text: (§4) Multidrug resistance alleles, including mutations in P. falciparum chloroquine resistance transporter (pfcrt) and P. falciparum multi-drug resistance transporter 1 (pfmdr1) are very common in field isolates. Therefore, we sought to assess the degree to which pre-existing resistance alleles would contribute to a loss of potency for this diverse collection of small molecule compounds. Fifteen clones derived from three main parent lines were chosen to maximize diversity in mutated pathways and genetic backgrounds, thus representing the variety of resistance seen in the field: 3D7 (ref. [23]), W2 (ref. [24]) or Dd2 (ref. [25]). The 3D7 line originates from the clone of a Netherlands clinical isolate strain[23][26] and is generally considered to be drug sensitive, though it does convey resistance to sulfadoxine. Conversely, W2 (ref. [24], [27]) and Dd2 (ref. [25]) are multi-drug-resistant lines originating from the Indochina III/CDC isolate, which contain point mutations in pfcrt as well as amplifications in pfmdr1 and GTP cyclohydrolase.
as §1, §2, §3

Assay [3] has as its system W2. Put plainly: Cross-resistance EC50 assay, W2 parent. The settings on record: Plasmodium falciparum, 48 h, read-out: W2F6 (PARENT) Average EC50. The assay is classed as cell-based, Plasmodium falciparum.
Source text: as §4
To evaluate potential overlapping activity against known antimalarial drug targets, we performed dose-response studies with each compound against our assembled set of drug-resistant lines and their corresponding parents, in an asexual blood stage proliferation assay (Table 1). Comparisons were made to the drug-sensitive strain 3D7 when a parent was unavailable (TM90C2A, W2 and Dd2). As laboratories conducted EC50 assays with different strains and protocols, all comparisons were made between assays from the same laboratory and under the same assay conditions. Compounds displaying >5-fold EC50 shifts relative to the parent or sensitive strain were flagged as having potentially non-novel targets. Average fold shifts per strain ranged from 0.82 to 2.34, with a median of 1.23 indicating there was not common resistance to any one resistant clone. No resistance patterns were observed when classifying the compounds based on chemical structure, but this was not surprising given the diversity of compounds chosen. On the other hand, given that these confirmed compounds were derived from larger unconfirmed hit lists to which some filtration criteria may have been applied (for example, elimination of obvious dihydrofolate reductase inhibitors[32]), some[10][11][12][13] pre-existing bias may exist in the set.
The 48-h assay was carried out in a 96-well format following standard methods using the ^3H-hypoxanthine incorporation assay. The raw EC50 values corresponding to this assay can be found in Supplementary Data 3. Briefly, this assay relies on the parasite incorporation of labelled hypoxanthine that is proportional to P. falciparum growth. A culture of parasitized RBCs (0.5% parasitemia with a percentage of ring stage higher than 70% of total parasitemia, 2.0% haematocrit) in RPMI-1640, […] and 5 μM hypoxanthine was exposed to drug serial dilutions. Plates were incubated for 24 h at 37 °C, 5% CO2, 5% O2 and 90% N2. After 24 h of incubation, ^3H-hypoxanthine was added and plates were incubated for an additional 24-h period. After that, parasites were harvested on a glass fibre filter using a TOMTEC Cell Harvester 96. Filters were dried and melt-on scintillator sheets were used to determine the incorporation of ^3H-hypoxanthine. Radioactivity was measured using a microbeta counter. Data were normalized using the incorporation of the positive (parasitized RBCs without drug) and negative (same culture with artesunate at 2 μM) controls. All assays were conducted in triplicate using three independently grown cultures, and EC50 values were determined using the XLfit add-in module for Excel (version 2.3.1) from Grafit (version 5.3.1.3), where parameter h is the assay hill slope, x is the compound concentration and y is the inhibition of growth effect. The XLfit equation is: […]
Alternatively, a SYBR Green-based proliferation approach was used for the 72-h assay, as previously described. […]

The mark [4] stands for this setting: DD2, 72 h, read-out: Dd2 (PARENT) Average EC50.
The mark [5] stands for this setting: DD2, 72 h, read-out: Dd2 (PARENT) EC50 (µM) Average EC50.

Where two headings read alike, the source gives them in different places.

Take `COc1ccc(NC(=O)N2CCCCN3[C@H](CN)[C@H](c4ccc(C#Cc5ccccc5)cc4)[C@@H]3C2)cc1` [BRD1095]: the EC50 in assay [1] (DD2, CYTbQi strain) was determined as 18 nM; in assay [2] (setting [4]), 0.013 µM; in assay [2] (setting [5]) it was 0.00257 µM.
As for `CCN(CC)CCn1c(=N)n(CC(O)c2ccc(Cl)c(Cl)c2)c2ccccc21.Cl` (centres unmarked) [MMV000248], the EC50 was found to be 340 nM in assay [1] (strain CYTbQi (Dd2 parent)), 605 nM in assay [3], 0.424 µM in assay [2] (setting [4]) and 0.413 µM in assay [2] (setting [5]).
Take `CCOc1cc2c(cc1OCC)C(c1cc(Cl)ccc1O)NCC2` (centres unmarked) [MMV000478]: the EC50 is 817 nM in assay [1] (strain CYTbQi (Dd2 parent)), 172 nM in assay [3], 0.803 µM in assay [2] (setting [4]) and 0.843 µM in assay [2] (setting [5]).
Take `CCCOCc1cc(CN2CCN(c3cccc(Cl)c3)CC2)c(O)c2ncccc12` [MMV000787]: the EC50 in assay [1] (strain CYTbQi (Dd2 parent)) worked out at 520 nM; in assay [3], 792 nM; in assay [2] (setting [4]), 0.588 µM; in assay [2] (setting [5]) it was 1.59 µM.
The corresponding values for `CN1CCN(c2ccc(Nc3c4ccccc4nc4ccccc34)cc2)CC1` [MMV006172] are 107 nM, 227 nM, 0.168 µM and 0.298 µM.
The corresponding values for `CCCN(CCC)CC(O)COc1ccccc1C(=O)Nc1ccccc1` (centres unmarked) [MMV006455] are 200 nM, 106 nM, 1.21 µM and 0.408 µM.
The corresponding values for `COc1cc2cc(C(=O)Nc3ccccc3)c(N)nc2cc1OC` [MMV006767] are 1930 nM, 1820 nM, 1.6 µM and 0.215 µM.
For the molecule `Cc1cc(Nc2ccc(OCc3ccccc3)cc2)nc2cc(O)ccc12` [MMV007181], the EC50 is 144 nM in assay [1] (strain CYTbQi (Dd2 parent)), 34 nM in assay [3], 0.186 µM in assay [2] (setting [4]) and 0.19 µM in assay [2] (setting [5]).
The corresponding values for `Brc1ccc(Nc2nc3ccccc3nc2Nc2ccc(Br)cc2)cc1` [MMV007224] are 327 nM, 288 nM, 0.274 µM and 0.714 µM.
The corresponding values for `Cc1ccc(Cn2c(N3CCC(C(=O)NCc4cccs4)CC3)nc3ccccc32)cc1` [MMV007564] are 574 nM, 503 nM, 0.392 µM and 0.342 µM.
For the molecule `Cc1c(C)n(Cc2ccc(F)cc2)c2ccc(C(=O)NCc3ccco3)cc12` [MMV008149], the EC50 came out at 87 nM in assay [1] (strain CYTbQi (Dd2 parent)); 805 nM in assay [3]; 0.09 µM in assay [2] (setting [4]); 1.63 µM in assay [2] (setting [5]); 0.485 µM in assay [2] (DD2, read-out: EC50, Dd2 parent).
For `OC(CNC1CCCCC1)Cn1c2ccccc2c2ccccc21` (centres unmarked) [MMV009063], the EC50 in assay [1] (strain CYTbQi (Dd2 parent)) was determined as 257 nM; in assay [3], 126 nM; in assay [2] (setting [4]) it was 0.188 µM; in assay [2] (setting [5]) it was 0.364 µM.
The like results for `CCN(CC)S(=O)(=O)c1ccc(-c2csc(Nc3ccc(C)c(C)c3)n2)cc1` [MMV009108] were, in that order, 416 nM, 378 nM, 0.368 µM and 0.929 µM.
Take `COC(=O)c1ccc(C2C3=C(O)CC(c4ccc(F)cc4)CC3=Nc3ccccc3N2C(=O)c2ccccc2)cc1` (centres unmarked) [MMV011438]: the EC50 in assay [1] (strain CYTbQi (Dd2 parent)) is 235 nM; in assay [3], 644 nM; in assay [2] (setting [4]) it was 0.152 µM; in assay [2] (setting [5]), 0.655 µM.
Take `Nc1ccc(-c2nc3cc(Oc4ccc(Oc5ccc6[nH]c(-c7ccc(N)cc7)nc6c5)cc4)ccc3[nH]2)cc1` [MMV011895]: the EC50 came to 267 nM in assay [1] (strain CYTbQi (Dd2 parent)), 279 nM in assay [3], 0.259 µM in assay [2] (setting [4]) and 0.431 µM in assay [2] (setting [5]).
`COCCNCC(O)Cn1c2ccc(Cl)cc2c2cc(Cl)ccc21` (centres unmarked) [MMV019017]: the concentration for a half-maximal effect (EC50) was determined as 549 nM in assay [1] (strain CYTbQi (Dd2 parent)), 138 nM in assay [3], 0.477 µM in assay [2] (setting [4]) and 0.998 µM in assay [2] (setting [5]).
Turning to `COc1ccccc1CNC(=O)CCn1c(=O)[nH]c2ccsc2c1=O` [MMV019066], the EC50 in assay [1] (strain CYTbQi (Dd2 parent)) came to 74 nM; in assay [3], 1270 nM; in assay [2] (setting [4]), 0.054 µM; in assay [2] (setting [5]), 0.00951 µM.
The like results for `Cl.c1ccc2c(NCCCCCCNc3c4c(nc5ccccc35)CCCC4)c3c(nc2c1)CCCC3` [MMV019555] were, in that order, 227 nM, 491 nM, 0.236 µM and 0.241 µM.
The corresponding values for `COc1ccc(N2CCN(C(CNC(=O)C3CCCCC3)c3ccc4c(c3)OCO4)CC2)cc1` (centres unmarked) [MMV019662] are 448 nM, 428 nM, 0.357 µM and 0.242 µM.
The like results for `COc1ccc(-c2nc(NC(=O)Cc3ccc4c(c3)OCCO4)sc2C)cc1` [MMV019719] were, in that order, 245 nM, 143 nM, 0.26 µM and 0.277 µM.
Turning to `Cc1ccc(Oc2ncccc2C(=O)Cc2cccc3cccnc23)c(C)c1` [MMV020746], the EC50 in assay [1] (strain CYTbQi (Dd2 parent)) stood at 268 nM; in assay [3] it was 247 nM; in assay [2] (setting [4]), 0.241 µM; in assay [2] (setting [5]), 1.86 µM.
The like results for `COc1cc(-c2nc(-c3ccccc3)c(-c3ccccc3)[nH]2)cc(OC)c1O` [MMV020750] were, in that order, 927 nM, 1870 nM, 0.678 µM and 0.773 µM.
As to `CCCCCCCN(Cc1ccc(OC(C)(C)C(=O)OCC)cc1)C(=O)Nc1ccc(Cl)cc1OCC` [MMV021735], the EC50 in assay [1] (strain CYTbQi (Dd2 parent)) worked out at 223 nM; in assay [3], 361 nM; in assay [2] (setting [4]), 0.258 µM; in assay [2] (setting [5]), 1.29 µM.

By EC50 is commonly meant the midpoint of the concentration-response curve.
